Laboratory results: ChEMBL document CHEMBL2203152, “Systematic in vivo screening of a series of 1-propyl-4-arylpiperidines against dopaminergic and serotonergic properties in rat brain: a scaffold-jumping approach” (J Med Chem, 2012)
Activity calls are given as the source filed them. The rule behind the calls is not given here.

Tests used:
Rattus norvegicus [1] = assay: Reduction in spontaneous locomotor activity in Sprague-Dawley rat at 100 umol/kg, sc measured after 15 to 60 mins relative to saline-treated control; assay type: functional; parameters: scale not given: the % may be the effect or the level left
Rattus norvegicus [2] = assay: Decrease in 5-HIAA level in Sprague-Dawley rat striatum at 100 umol/kg, sc by HPLC analysis relative to saline-treated control; assay type: functional; parameters: scale not given: the % may be the effect or the level left
Rattus norvegicus [3] = assay: Increase in DOPAC level in Sprague-Dawley rat striatum at 100 umol/kg, sc by HPLC analysis relative to saline-treated control; assay type: functional
[4] = molecular target: T1, Amine oxidase [flavin-containing] A (Rattus norvegicus, UniProt P21396); assay: Displacement of [3H]Ro 41-1049 from MAO-A in rat cerebral cortex by competition binding assay; assay type: tissue-based; conditions: for Ki: read-out: Ki(app)
T1 sequence (P21396 whole entry): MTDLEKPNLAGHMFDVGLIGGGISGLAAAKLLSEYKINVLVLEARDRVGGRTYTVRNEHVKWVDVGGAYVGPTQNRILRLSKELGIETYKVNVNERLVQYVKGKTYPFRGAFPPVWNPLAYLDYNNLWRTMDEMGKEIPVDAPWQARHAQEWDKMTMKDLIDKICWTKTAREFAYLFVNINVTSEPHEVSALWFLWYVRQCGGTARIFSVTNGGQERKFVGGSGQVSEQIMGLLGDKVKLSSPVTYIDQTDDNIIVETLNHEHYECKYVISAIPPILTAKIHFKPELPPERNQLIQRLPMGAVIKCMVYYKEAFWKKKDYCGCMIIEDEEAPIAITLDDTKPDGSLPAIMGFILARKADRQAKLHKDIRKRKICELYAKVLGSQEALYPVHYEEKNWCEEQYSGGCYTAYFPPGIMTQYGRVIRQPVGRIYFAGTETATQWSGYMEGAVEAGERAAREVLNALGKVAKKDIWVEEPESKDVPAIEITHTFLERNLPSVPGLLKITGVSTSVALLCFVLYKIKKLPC

Homo sapiens = species on record: Homo sapiens; assay: Selectivity ratio of Ki(app) for human low affinity Dopamine D2S receptor to Ki(app) for human high affinity Dopamine D2S receptor
[5] = molecular target: Sodium-dependent serotonin transporter (Homo sapiens, UniProt P31645); assay: Displacement of [3H]imipramine from human SERT expressed in CHO cells by competition binding assay; assay type: cell-based; conditions: read-out: Ki(app)
Chain of Sodium-dependent serotonin transporter (P31645 whole entry): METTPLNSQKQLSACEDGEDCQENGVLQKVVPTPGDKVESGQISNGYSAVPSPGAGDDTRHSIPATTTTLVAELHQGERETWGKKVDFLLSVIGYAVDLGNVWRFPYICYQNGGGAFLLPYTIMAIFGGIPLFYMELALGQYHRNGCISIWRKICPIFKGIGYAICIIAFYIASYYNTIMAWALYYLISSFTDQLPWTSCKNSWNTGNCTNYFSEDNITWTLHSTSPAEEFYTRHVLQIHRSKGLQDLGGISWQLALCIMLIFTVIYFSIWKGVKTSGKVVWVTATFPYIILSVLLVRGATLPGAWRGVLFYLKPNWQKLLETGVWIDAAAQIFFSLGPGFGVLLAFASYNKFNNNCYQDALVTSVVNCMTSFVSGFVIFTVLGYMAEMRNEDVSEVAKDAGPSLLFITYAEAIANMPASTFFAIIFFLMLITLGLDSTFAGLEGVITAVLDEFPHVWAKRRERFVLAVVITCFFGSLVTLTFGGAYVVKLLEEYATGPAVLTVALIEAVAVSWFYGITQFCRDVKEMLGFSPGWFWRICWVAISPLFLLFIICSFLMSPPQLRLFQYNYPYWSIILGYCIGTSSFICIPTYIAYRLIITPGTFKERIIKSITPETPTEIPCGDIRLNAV

D(2) dopamine receptor [6] = molecular target: T2, D(2) dopamine receptor (Homo sapiens, UniProt P14416); assay: Displacement of [3H]7-OH-DPAT from human high affinity Dopamine D2S receptor by competition binding assay
T2 sequence (P14416 whole entry): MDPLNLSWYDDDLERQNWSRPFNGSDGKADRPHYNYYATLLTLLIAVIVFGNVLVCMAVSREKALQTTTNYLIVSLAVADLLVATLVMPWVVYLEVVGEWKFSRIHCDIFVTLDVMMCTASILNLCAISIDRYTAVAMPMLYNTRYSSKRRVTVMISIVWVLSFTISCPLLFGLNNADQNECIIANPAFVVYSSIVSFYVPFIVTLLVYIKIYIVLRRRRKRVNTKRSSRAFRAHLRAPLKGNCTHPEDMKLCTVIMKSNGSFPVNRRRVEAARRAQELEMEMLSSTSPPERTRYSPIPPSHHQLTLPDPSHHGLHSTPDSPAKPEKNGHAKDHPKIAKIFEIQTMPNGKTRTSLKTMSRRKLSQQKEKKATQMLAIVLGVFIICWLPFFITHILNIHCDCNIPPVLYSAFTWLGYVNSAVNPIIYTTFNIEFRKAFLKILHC

D(2) dopamine receptor [7] = molecular target: T2, D(2) dopamine receptor; assay: Displacement of [3H]methylspiperone from human low affinity Dopamine D2S receptor by competition binding assay
[8] = molecular target: 5-hydroxytryptamine receptor 2A (Homo sapiens, UniProt P28223); assay: Displacement of [3H]ketanserin from human 5-HT2A at 1 uM by CEREP assay
Chain of 5-hydroxytryptamine receptor 2A (P28223 whole entry): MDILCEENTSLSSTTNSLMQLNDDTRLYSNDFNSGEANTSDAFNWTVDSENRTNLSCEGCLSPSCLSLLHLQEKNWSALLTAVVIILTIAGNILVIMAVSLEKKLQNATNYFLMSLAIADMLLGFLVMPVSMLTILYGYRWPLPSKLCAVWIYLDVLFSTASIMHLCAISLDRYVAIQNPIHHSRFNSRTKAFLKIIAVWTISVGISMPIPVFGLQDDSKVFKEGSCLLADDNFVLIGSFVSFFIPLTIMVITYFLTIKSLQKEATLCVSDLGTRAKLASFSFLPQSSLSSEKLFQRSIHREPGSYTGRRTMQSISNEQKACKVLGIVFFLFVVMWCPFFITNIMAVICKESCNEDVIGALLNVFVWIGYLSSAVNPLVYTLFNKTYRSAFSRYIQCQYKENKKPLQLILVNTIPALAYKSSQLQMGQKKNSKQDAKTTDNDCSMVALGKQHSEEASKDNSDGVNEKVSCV

[9] = molecular target: T3, Alpha-2A adrenergic receptor (Homo sapiens) (UniProt P08913); assay: Displacement of [3H]UK 14.304 from human adrenergic alpha2A receptor at 1 uM
T3 sequence (whole entry): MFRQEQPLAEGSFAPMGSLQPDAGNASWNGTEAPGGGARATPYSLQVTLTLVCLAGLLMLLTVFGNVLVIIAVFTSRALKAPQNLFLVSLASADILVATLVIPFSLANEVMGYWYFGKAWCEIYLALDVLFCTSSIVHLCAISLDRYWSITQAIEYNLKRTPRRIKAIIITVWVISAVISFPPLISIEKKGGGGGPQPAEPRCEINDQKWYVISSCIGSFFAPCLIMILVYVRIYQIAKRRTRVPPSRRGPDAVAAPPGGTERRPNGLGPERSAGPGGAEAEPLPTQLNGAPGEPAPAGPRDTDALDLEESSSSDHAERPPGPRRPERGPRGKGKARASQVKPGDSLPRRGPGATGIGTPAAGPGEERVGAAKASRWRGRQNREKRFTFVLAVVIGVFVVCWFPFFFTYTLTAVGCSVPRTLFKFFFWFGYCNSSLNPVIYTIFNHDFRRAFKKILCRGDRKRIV

[10] = molecular target: T4, 5-hydroxytryptamine receptor 1A (Homo sapiens) (UniProt P08908); assay: Displacement of [3H]8- OH-DPAT from human 5-HT1A at 1 uM by CEREP assay
T4 sequence (whole entry): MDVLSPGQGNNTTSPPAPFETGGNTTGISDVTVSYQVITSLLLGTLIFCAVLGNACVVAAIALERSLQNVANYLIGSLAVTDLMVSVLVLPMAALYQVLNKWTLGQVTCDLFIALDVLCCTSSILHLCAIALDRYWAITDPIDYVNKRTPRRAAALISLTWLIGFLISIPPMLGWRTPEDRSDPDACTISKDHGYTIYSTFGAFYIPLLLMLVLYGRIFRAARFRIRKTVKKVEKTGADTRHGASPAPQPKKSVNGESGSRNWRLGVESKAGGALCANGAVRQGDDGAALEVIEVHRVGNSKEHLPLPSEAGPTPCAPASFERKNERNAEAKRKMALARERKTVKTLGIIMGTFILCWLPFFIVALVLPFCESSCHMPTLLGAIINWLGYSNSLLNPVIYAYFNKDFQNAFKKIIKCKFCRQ

[11] = molecular target: Sodium-dependent dopamine transporter (Homo sapiens) (UniProt Q01959); assay: Displacement of [3H]BTCP from human DAT at 1 uM by CEREP assay
Chain of Sodium-dependent dopamine transporter (Homo sapiens) (Q01959 whole entry): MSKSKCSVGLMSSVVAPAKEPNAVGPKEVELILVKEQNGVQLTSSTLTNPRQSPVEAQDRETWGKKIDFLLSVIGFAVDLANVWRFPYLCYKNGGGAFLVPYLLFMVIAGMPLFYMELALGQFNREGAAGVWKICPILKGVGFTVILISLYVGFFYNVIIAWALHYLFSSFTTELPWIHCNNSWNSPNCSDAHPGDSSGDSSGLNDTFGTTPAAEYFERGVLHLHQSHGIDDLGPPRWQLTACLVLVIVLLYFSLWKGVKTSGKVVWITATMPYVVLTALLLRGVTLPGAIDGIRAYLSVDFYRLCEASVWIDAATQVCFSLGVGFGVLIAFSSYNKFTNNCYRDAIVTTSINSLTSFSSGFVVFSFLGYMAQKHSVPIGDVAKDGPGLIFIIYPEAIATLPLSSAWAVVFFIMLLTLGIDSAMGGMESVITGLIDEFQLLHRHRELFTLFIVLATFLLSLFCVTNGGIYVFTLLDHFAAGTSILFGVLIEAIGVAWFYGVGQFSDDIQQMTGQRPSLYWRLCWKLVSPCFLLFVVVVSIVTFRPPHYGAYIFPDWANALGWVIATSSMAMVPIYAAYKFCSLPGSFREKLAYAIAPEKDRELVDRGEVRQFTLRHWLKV

Rattus norvegicus [12] = assay: Increase in DOPAC level in sc dosed Sprague-Dawley rat striatum by HPLC analysis; assay type: functional
Rattus norvegicus [13] = assay: Reduction in spontaneous locomotor activity in Sprague-Dawley rat at 33 umol/kg, sc measured after 15 to 60 mins relative to saline-treated control; assay type: functional; parameters: scale not given: the % may be the effect or the level left
Rattus norvegicus [14] = assay: Decrease in 5-HIAA level in Sprague-Dawley rat striatum at 33 umol/kg, sc by HPLC analysis relative to saline-treated control; assay type: functional; parameters: scale not given: the % may be the effect or the level left
Rattus norvegicus [15] = assay: Increase in DOPAC level in Sprague-Dawley rat striatum at 33 umol/kg, sc by HPLC analysis relative to saline-treated control; assay type: functional
[16] = molecular target: T5, D(4) dopamine receptor (Homo sapiens) (UniProt P21917); assay: Displacement of [3H]methylspiperone from human dopamine D4 receptor at 1 uM by CEREP assay
T5 sequence (whole entry): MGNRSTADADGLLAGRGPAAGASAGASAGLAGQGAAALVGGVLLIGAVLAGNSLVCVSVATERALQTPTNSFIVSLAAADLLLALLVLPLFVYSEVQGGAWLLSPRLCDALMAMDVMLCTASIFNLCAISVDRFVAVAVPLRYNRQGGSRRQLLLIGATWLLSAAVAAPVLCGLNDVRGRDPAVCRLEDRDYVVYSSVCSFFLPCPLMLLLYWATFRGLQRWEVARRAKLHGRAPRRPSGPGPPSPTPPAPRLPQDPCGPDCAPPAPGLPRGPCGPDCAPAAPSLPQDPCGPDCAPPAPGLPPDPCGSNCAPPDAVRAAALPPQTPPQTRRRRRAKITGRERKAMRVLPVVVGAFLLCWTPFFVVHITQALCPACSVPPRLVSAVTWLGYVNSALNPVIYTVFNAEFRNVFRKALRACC

D(3) dopamine receptor = D(3) dopamine receptor (Homo sapiens, UniProt P35462); assay: Displacement of [3H]7-OH-DPAT from human dopamine D3 receptor at 1 uM by CEREP assay
Chain of D(3) dopamine receptor (P35462 whole entry): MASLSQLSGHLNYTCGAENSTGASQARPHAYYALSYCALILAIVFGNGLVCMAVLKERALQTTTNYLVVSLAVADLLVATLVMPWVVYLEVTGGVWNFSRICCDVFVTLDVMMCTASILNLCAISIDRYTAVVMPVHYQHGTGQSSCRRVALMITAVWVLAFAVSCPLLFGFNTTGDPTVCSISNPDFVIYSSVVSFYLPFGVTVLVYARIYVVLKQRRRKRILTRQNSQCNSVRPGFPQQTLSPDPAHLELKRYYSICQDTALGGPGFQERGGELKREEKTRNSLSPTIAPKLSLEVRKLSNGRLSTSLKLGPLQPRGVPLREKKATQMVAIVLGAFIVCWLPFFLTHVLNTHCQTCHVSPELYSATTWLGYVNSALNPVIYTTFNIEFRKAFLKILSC

[17] = Binding affinity to dopamine receptor
[18] = Binding affinity to 5-HT receptor

Structure (SMILES) | Activity (Rattus norvegicus [1]) [%] | Activity (Rattus norvegicus [2]) [%] | Activity (Rattus norvegicus [3]) [%] | Ki [4] [nM] | Ratio Ki(app) (Homo sapiens) | Ki [5] [nM] | Ki (D(2) dopamine receptor [6]) [nM] | Ki (D(2) dopamine receptor [7]) [nM] | ED50 (Rattus norvegicus [12]) | also measured
CCCN1CCC(c2ccc3ccccc3c2)CC1 | 22 | 70 | 32 | 63 | 1.9 | 127 | 1540 | 2870 | – | inhibition [8]: 91%; inhibition [9]: 20%; inhibition [10]: 41%; inhibition [11]: 47%
CCCN1CCC(c2csc3ccccc23)CC1 | 48 | 79 | 290 | 14000 | 4.6 | 6.5 | 26 | 121 | 54 µmol/kg | –
CCCN1CCC(c2cccc(S(C)(=O)=O)c2)CC1 [PRIDOPIDINE] | – | – | – | – | – | – | – | – | 81 µmol/kg | –
CCCN1CCC(c2cccc3ccccc23)CC1 | 62 | 76 | 218 | 5420 | 2.7 | 52 | 41 | 112 | 103 µmol/kg | –
CCCN1CCC(c2noc3cc(F)ccc23)CC1 | – | – | – | 2230 | 5.7 | 29800 | 34 | 194 | 4 µmol/kg | Activity (Rattus norvegicus [13]): 8.3%; Activity (Rattus norvegicus [14]): 111%; Activity (Rattus norvegicus [15]): 350%; inhibition [10]: 17%; inhibition [11]: 15%; inhibition [16]: 37%; inhibition (D(3) dopamine receptor): 83%
CCCN1CCC(n2cnc3ccccc32)CC1 | 20 | 98 | 111 | – | – | 122 | 10800 | – | inactive | IC50 [4]: > 580000 nM; IC50 (D(2) dopamine receptor [7]): > 580000 nM
CCCN1CCC(c2cc3ccccc3s2)CC1 | 37 | 76 | 28 | 18 | 4 | 130 | 574 | 2320 | – | inhibition [8]: 95%; inhibition [9]: 21%; inhibition [10]: 23%; inhibition [11]: 67%
CCCN1CC=C(c2c[nH]c3ccc(Cl)cc23)CC1 | – | – | – | – | – | – | – | – | – | Activity [17]: 80 nM; Activity [18]: 260 nM
CCCN1CCC(n2ccc3ccccc32)CC1 | 92 | 87 | 227 | 74900 | 10 | 54 | 109 | 1140 | 126 µmol/kg | –
CCCN1CCC(N2C(=O)C(=O)c3ccccc32)CC1 | 118 | 95 | 101 | – | 0.9 | 23800 | 12800 | 12200 | inactive | IC50 [4]: > 580000 nM
CCCN1CCC(c2n[nH]c3ccccc23)CC1 | – | – | – | 7440 | 5.7 | 5640 | 187 | 1070 | 55 µmol/kg | Activity (Rattus norvegicus [13]): 7%; Activity (Rattus norvegicus [14]): 105%; Activity (Rattus norvegicus [15]): 227%
CCCN1CCC(n2c(=O)n(C)c3cc(Cl)ccc32)CC1 | 27 | 113 | 253 | – | 0.4 | 2240 | 5180 | 2000 | 47 µmol/kg | IC50 [4]: > 580000 nM
CCCN1CCC(c2cn(C)c3ccc(F)cc23)CC1 | – | – | – | 6860 | 1.7 | 58 | 19 | 32 | 3 µmol/kg | Activity (Rattus norvegicus [13]): 9%; Activity (Rattus norvegicus [14]): 87%; Activity (Rattus norvegicus [15]): 275%
CCCN1CCC[C@@H](c2cccc(S(C)(=O)=O)c2)C1 | 215 | 100 | 260 | – | – | – | – | – | 63 µmol/kg | –
CCCN1CCC(c2cn(C)c3cc(F)ccc23)CC1 | 27 | 95 | 264 | 4050 | 1.7 | 45 | 157 | 275 | 33 µmol/kg | –
CCCN1CCC(c2c[nH]c3cc(F)ccc23)CC1 | – | – | – | 15800 | 0.6 | 45 | 43 | 27 | 4.1 µmol/kg | Activity (Rattus norvegicus [13]): 2.8%; Activity (Rattus norvegicus [14]): 93%; Activity (Rattus norvegicus [15]): 299%; inhibition [8]: 100%; inhibition [9]: 91%; inhibition [10]: 14%; inhibition [11]: 1%
CCCN1CCC(c2coc3ccccc23)CC1 | 75 | 84 | 35 | 92 | – | 827 | 803 | 2720 | – | inhibition [10]: 49%; inhibition [11]: 34%; inhibition [16]: 26%; inhibition (D(3) dopamine receptor): 28%
